The values that follow are results of earlier work, collected in PMC8780741, “Integration of In Silico, In Vitro and In Situ Tools for the Preformulation and Characterization of a Novel Cardio-Neuroprotective Compound during the Early Stages of Drug Development” (Pharmaceutics, 2022).

On the set-up of the data set: method as in PMID 15832504. As to conditions: reference compound for the permeability cut-off; cited from earlier work.

In the case of `COCCc1ccc(OCC(O)CNC(C)C)cc1` (stereo not shown) [Metoprolol], the logP is recorded as 1.72.
